# How the values were obtained:
# UGN = assay: ELISA detection of serum UGN in macaques; assay type: in vivo; conditions: macaque, not significant (p=0.06)
# [1] = GF mice experiment (high-fat diet); assay type: in vivo, Germ-free (GF) C57B1/6 mice
# Source text: To further determine the relative contribution of the microbiota to the anti-obesity effects of HD, D3 was chosen for GF mice experiment.
# Germ-free (GF) C57B1/6 mice were used in the GF mice experiment, kept in a germ-free isolator, and their GF status was verified by fecal PCR every month. At the beginning of the experiment, germ-free (GF) C57B1/6 mice were 4 weeks old, each weighed 14±1 g. They were raised in a room with suitable temperature and humidity control, and the light/dark cycle was 12 hours, free diet and drinking water, and fed with standard laboratory feed (growth and reproduction feed, SPFSLFZ003, product of SPF (Beijing) Experimental Animal Technology Co., Ltd.), after one week of adaptation, they were randomly assigned to each cage, 4-6 mice per cage. A total of 3 treatments were set up, each with 1 cage, and each treatment was subjected to different feeding treatments, specifically as follows:
# NC group (i.e. normal diet group): fed with standard laboratory feed (also known as growth and reproduction feed, SPFSLFZ003), free diet and drinking water for 8 weeks.
# HFD group (i.e. high-fat diet group): fed with high-fat diet, the high-fat diet used was rodent feed (containing 60 kcal % fat, D12492), free diet and drinking water for 8 weeks.
# D3 group (i.e. high-fat diet+D3 medicine intragastric administration group): fed with high-fat diet, free diet and drinking water. Intragastrically administrated with D3 medicine, 0.75 mg-3 mg/Kg body weight, 0.2 ml, once/day for 8 weeks.
# Food intake and body weight were monitored weekly.
# After the experiment on GF mice, the mice were killed by cervical dislocation. The heart, liver, spleen, lung, kidney, blood, ileum, cecum, and colon were harvested, immediately placed in liquid nitrogen, and stored at −80° C. for further analysis. Precisely dissected and subcutaneous and visceral fat deposits were weighed.
# Guca2b = assay: Ileum transcriptome sequencing and qPCR gene expression in mice; assay type: in vivo; conditions: P<0.01
# Protocol: In order to find the target genes that D3 may act on, the inventors performed ileal transcriptome analysis. Three samples from each group of mice were selected as targets for transcriptome sequencing. Ileal RNA was extracted using the Trizol method and an Agilent 2100 analyser was required to detect the RNA quality above 7 for RNA library construction. After passing the sample test, 2 μg of total RNA was taken from each sample to construct a transcriptome sequencing library. After data acquisition, the RNA-seq data was first de-redundantly removed using Trim galore v0.4.4 to remove junctions and low quality sequences. Using GRCm38 as the mice reference genome, HISAT2 v2.0.5 and StringTie v1.3.4 were used to quantify the abundance of each gene. Differential expression analysis was performed using DESeq2 v1.24.0.
# qPCR gene expression was carried out using the StepOnePlus real-time fluorescent quantitative PCR system. Three technical replicates were performed for each sample, and the identity and purity of the amplified product were checked by analyzing the melting curve at the end of the amplification. Gene expression results were referenced to the percent expression of each gene normalized to glyceraldehyde-3-phosphate dehydrogenase (GAPDH).
# [2] = Rat feeding experiment (high-fat diet); assay type: in vivo, Sprague Dawley (SD) rats; conditions: SD rats, 10 weeks
# Protocol: Sprague Dawley (SD) rats were used in the rat experiment. At the beginning of the experiment, the rats were 4 weeks old, and each weighed 137±5 g. They were raised in a room with suitable temperature and humidity control, and the light/dark cycle was 12 hours, free diet and drinking water, and fed with standard laboratory feed (a growth and reproduction feed, SPFSLFZ003). After one week of adaptation, they were randomly assigned to a cage. HD treatment was represented by D3, a total of 3 treatments were set up, and each treatment was subjected to different feeding treatments, specifically as follows (see figure a of FIG. 7):
# NC group (i.e. normal diet group): 8 rats were fed with standard laboratory feed (also known as growth and reproduction feed, SPFSLFZ003), free diet and drinking water for 10 weeks.
# HFD group (i.e. high-fat diet group): 8 rats were fed with high-fat diet, the high-fat diet used was rodent feed (containing 60 kcal % fat, D12492), free diet and drinking water for 10 weeks.
# D3 group (i.e. high-fat diet+D3 medicine intragastric administration group): 10 rats were fed with high-fat diet, free diet and drinking water. Intragastrically administrated with HD (choose D3), 0.5 mg-2 mg/Kg body weight, 0.5 ml, once/day for 10 weeks.
# Body weights were monitored weekly. […]
# A. muciniphila = assay: qPCR of abundance of A. muciniphila in intestine of rhesus monkeys; assay type: in vivo; conditions: macaque, p<0.05
# Source text: FIGS. 7A-7H are a graph showing the effect of using D3 on rats and rhesus monkeys in Example 2 of the present invention. FIG. 7A is the schematic diagram of sampling time point in rats; FIG. 7B is the graph showing the results of the growth rate of body weight with different feeding treatments of the rat; FIG. 7C is the graph showing the results of the short-term feed intake measurement of the rat; FIG. 7D is the graph showing the results of the qPCR detection of the abundance of A. muciniphila in intestine of rats with different feeding treatment; FIG. 7E is a schematic diagram of the sampling time point in rhesus monkeys; FIG. 7F is the graph showing the results of the growth rate of body weight with different feeding treatments of rhesus monkeys; FIG. 7G is the feed intake monitoring graphs of rhesus monkeys with different feeding treatments; FIG. 7H is the graph showing the results of the qPCR detection of the abundance of A. muciniphila in intestine of rhesus monkeys with different feeding treatment. The data shown in the figure are mean±standard deviation, the number of repetitions is 5-10, and the significant difference of each group is analyzed by Wilcoxon test. * representing a significance analysis result of P<0.05, ** representing a significance analysis result of P<0.01.
# Food intake (unit: g/only/week) and body weight were monitored weekly. […]
sequence,measurement,setting,value
RTRYCRTGR [D3],UGN levels in the serum,UGN,Increased
same,"subcutaneous and visceral fat weight (inguinal subcutaneous, epididymis, perinephric) vs HFD group",[1]; 8 weeks,significantly lower than that of the HFD group
same,weekly feed intake vs control HFD group,[1]; after 3-4 weeks,significant gap
same,body weight compared with the HFD group,"[1]; intragastric 0.75 mg-3 mg/Kg once/day, 8 weeks",decreased significantly
same,expression of UGN (Guca2b) in the ileum,Guca2b; GF mice,significantly up-regulated
same,expression of UGN (Guca2b) in the ileum,Guca2b; SPF mice,significantly up-regulated
same,decrease of growth rate of body weight,[2]; vs HFD group,8.96±3.11%
same,body weight compared with the HFD group,[2]; intragastric 0.5 mg-2 mg/Kg once/day,significantly lower than that of the HFD group
same,relative abundance of A. muciniphila in the intestine by qPCR,A. muciniphila,significantly increased
